Data set [1] can be described thus: Heating experiment of crystal form II. It counts as physicochemical. An excerpt:
The resulting solids were subsequently characterized by XRPD, TGA, DSC, and ^1H NMR testings.

In another data set the test system is alternative pathway. In words: Rabbit erythrocyte hemolysis assay (alternative pathway inhibition). As to conditions: rabbit erythrocytes, NHP or NHS (matrix of the value not stated). It counts as cell-based, human. From the text: Normal Human Serum (NHS) (collected from healthy individuals), Normal Human Plasma (NHP) (Shanghai Yuduo), 96-well enzyme-linked immunosorbent assay (ELISA) plates (Jet Biofil), Japanese big-ear white rabbits (Wuhan WQJX Biotechnology), Alsever's solution (Procell), centrifuge (Thermo, PICO17), constant temperature shaker (Shanghai Fuma), decolorization shaker (Beijing Liuyi Biotechnology), cell counter (Invitrogen, Counter Countess II). GVB°, EGTA, MgCl2, NaOH, microplate reader, microplate thermostatic shaker, pipettes, etc., were the same as Experiment 1.
48% NHP: 100% NHP was diluted to a concentration of 48% with buffer.
26.4% NPS: 100% NHS was diluted to a concentration of 26.4% with buffer. […]
In a 96-well microplate, for the experimental group 50 μL of 48% NHP or 26.4% NHS and 50 μL of compound solution were added; for the positive control group 50 μL of 48% NHP or 26.4% NHS and 50 μL of buffer containing 0.2% DMSO were added; for the blank control group 50 μL of 48% inactivated NHP or 26.4% inactivated NHS and 50 μL of buffer containing 0.2% DMSO were added; for the H2O group 100 μL of double-distilled water was added. […] The plate was centrifuged at 2000 g (3380 rpm) for 5 minutes, and 100 μL of supernatant was transferred to a new 96-well microplate, after which absorbance was measured at 415 nm. […]

Data set [2] in a line: Solubility experiments in biosolvents and water. The data set is classed as physicochemical. The protocol: (§1) The analysis and detection of samples were conducted using Shimadzu instruments. Both stability and solubility experiments were measured using the following methods.
The samples were fully stirred in SGF, FaSSIF, FeSSIF, and water for 0.5 hours, 2 hours, and 24 hours before being withdrawn. Their solubility was determined using HPLC, and the solid form in the suspensions was analyzed by XRPD for its crystal form.

The nature of data set [3]: Hygroscopicity experiment (DVS). The data set is classed as physicochemical. On the procedure: The sample was analyzed using Intrinsic DVS ([…] UK). The test sample, approximately 20~30 mg, was placed into the sample basket and suspended in the measurement chamber. The temperature in the test chamber was maintained at 25±1° C., while the relative humidity is increased from 0% to 90% and then decreased back to 0% at a rate of 10% per hour. Mass data was recorded every 20 seconds. Each gradient pause lasts 60 minutes.
No change in crystal form was observed before and after the DVS measurement.

Data set [4] in a line: Stability of crystal form I in DMSO under high-temperature conditions (LCMS purity). The data set is classed as physicochemical. On the procedure:
The LCMS curve was acquired using a Shimadzu instrument.
The suspension was stirred at 50° C. for 24 hours and 48 hours, respectively. The solid and filtrate were then analyzed by LCMS.

The nature of data set [5]: Water activity experiment (crystal form by XRPD). It counts as physicochemical. On the procedure:
Organic solvent and water were mixed at molar ratios of 0.001:0.999, 0.2:0.8, 0.5:0.5, 0.8:0.2, and 0.999:0.001. […] The mixtures were stirred at 25° C. and 50° C. for 30 minutes, respectively, followed by filtration, and the filtrate was collected. […] The results were analyzed after stirring for 5 days and 11 days, respectively.

Data set [6] can be described thus: Wet grinding crystal transformation experiment. As to conditions: manual grinding with water or ethanol for 10 minutes. The data set is classed as physicochemical. The protocol:
0.04 mL of water or ethanol was added, and manual grinding was performed for 2 min, 5 min, and 10 min, respectively. After each grinding period, XRPD was measured. If the solvent completely evaporates during the grinding process, an additional 0.04 mL of water or ethanol should be added to the mortar each time.

Data set [7] in a line: Tablet compression experiment. It counts as physicochemical. As to conditions: compressed at 40 MPa.
Data set [8] in a line: Determination of stability in biosolvents (HPLC purity). It counts as physicochemical. The protocol:
as §1
After thorough stirring for 0.5 hours, 2 hours, and 24 hours, the mixed solutions were diluted to 10 mL, and their purity was determined using HPLC. […] Main impurities are indicated by the boxes in FIGS. 26 to 29.

The nature of data set [9]: Solid-state stability experiment under open conditions (HPLC purity, XRPD). It counts as physicochemical. The protocol: as §1
The purity was determined by HPLC.

[10] abbreviates: simulated gastric fluid, thermodynamic from solid, SGF.
The mark [11] stands for this setting: thermodynamic from solid, FaSSIF.
The mark [12] stands for this setting: thermodynamic from solid, FeSSIF.
Setting [13] is: thermodynamic from solid, Water.
Where [14] appears, read: 25° C., DMSO-H2O, aw 0.0003-0.999.
[15] abbreviates: 50° C., DMSO-H2O, aw 0.0003-0.999.

SMILES strings stand for the structures. Values after ≈ are worked out from the molar mass of the structure shown. Like-named read-outs stand apart in the source and are kept apart here.

On to `NCc1cccc(-c2cc(COc3ccccc3CC(=O)O)cc(N3CCC4(CC3)CC4)c2)c1` [crystal form II], for which the “Crystal form (XRPD) after heating” value in data set [1] (heated to 140° C.) is recorded as “no change in the crystal form”; in data set [1] (heated to 200° C.), “crystal form I”.

One may read the IC50 as the concentration that inhibits the measured activity by half. On to `NCc1cccc(-c2cc(COc3ccccc3CC(=O)O)cc(N3CCC4(CC3)CC4)c2)c1` [Compound of formula A, 2-(2-((3′-(aminomethyl)-5-(6-azaspiro[2.5]octan-6-yl)-[1,1′-biphenyl]-3-yl)methoxy)phenyl)acetic Acid], for which, in the data set with alternative pathway, the IC50 stood at 41 nM.

By solubility is commonly meant the concentration that dissolves in the medium under given conditions. As for `NCc1cccc(-c2cc(COc3ccccc3CC(=O)O)cc(N3CCC4(CC3)CC4)c2)c1` [crystal form I], the solubility result is “LOQ” in [2] (Water, 0.5 h); > 5000 µg/mL in [2] (simulated gastric fluid, thermodynamic from solid, SGF, read-out: solubility in SGF); < 730 µg/mL in data set [2] (thermodynamic from solid, FaSSIF, FeSSIF, and water, read-out: solubility in FaSSIF, FeSSIF, and water). The “Crystal form (XRPD) of suspended solid” value in data set [2] (after stirring for 24 hours in FaSSIF, FeSSIF, and water) was “remained unchanged”. Besides, the solubility at 0.5 h in data set [2] (simulated gastric fluid, thermodynamic from solid, SGF, 0.5 h) was > 5000 µg/mL; in [2] (thermodynamic from solid, FaSSIF, 0.5 h), 54 µg/mL (≈ 118 µM); in data set [2] (thermodynamic from solid, FeSSIF, 0.5 h), 630 µg/mL (≈ 1380 µM). The solubility at 2 h in data set [2] (setting [10]) is > 5000 µg/mL; in data set [2] (setting [11]) it was 66 µg/mL (≈ 145 µM); in data set [2] (setting [12]), 700 µg/mL (≈ 1530 µM); in [2] (setting [13]), 0.2 µg/mL (≈ 0.438 µM). Besides, the solubility at 24 h in [2] (setting [10]) is > 5000 µg/mL; in data set [2] (setting [11]) it was 75 µg/mL (≈ 164 µM); in data set [2] (setting [12]), 730 µg/mL (≈ 1600 µM); in [2] (setting [13]) it was 0.58 µg/mL (≈ 1.27 µM). Also, the “Crystal form (XRPD) before and after the DVS measurement” value in data set [3] is listed as “No change”. For the same molecule, the “weight gain (DVS)” value in data set [3] (0-80% RH, 25° C.) was 0.55%. For the same molecule, the hygroscopicity entry in data set [3] (DVS) is reported as “slight hygroscopicity”. Moreover, the “Purity by LCMS (254 nm)” value was found to be 99.06% in [4] (crystal form I before stirring); 98.71% in [4] (stirred in DMSO at 50° C. for 24 hours, filtrate); 99.48% in data set [4] (stirred in DMSO at 50° C. for 24 hours, solid); 97.14% in data set [4] (stirred in DMSO at 50° C. for 48 hours, filtrate); 98.92% in data set [4] (stirred in DMSO at 50° C. for 48 hours, solid). For the same molecule, the “Result (5 days): solid form” value in data set [5] (25° C., ACN-H2O, aw 0.90-1.00) is “Crystal form I”; in data set [5] (setting [14]), “Crystal form I”; in data set [5] (25° C., IPA-H2O, aw 0.003-0.99) it was “Crystal form I”; in data set [5] (50° C., ACN-H2O, aw 0.01-1.00) it was “Crystal form I”; in [5] (setting [15]) it was “Crystal form I”; in data set [5] (50° C., IPA-H2O, aw 0.003-0.99), “Crystal form I”. For the same molecule, the “Result (11 days): solid form” value in data set [5] (25° C., ACN-H2O, aw 0.90-1.00) was “Crystal”; in data set [5] (setting [14]), “Crystal”; in data set [5] (25° C., IPA-H2O, aw 0.003-0.99), “Crystal”; in [5] (50° C., ACN-H2O, aw 0.01-1.00), “Crystal”; in data set [5] (setting [15]) it was “Crystal”; in [5] (50° C., IPA-H2O, aw 0.003-0.99) it was “Crystal”. Moreover, in [6], the “Crystal form (XRPD) after wet grinding” value is reported as “remained unchanged”. The “Crystal form (XRPD) after tablet compression” value in data set [7] is recorded as “remained unchanged”. For the same molecule, the “HPLC main peak purity” value turned out to be 99.33% in data set [8] (0 h); 98.97% in [8] (FaSSIF, 0.5 h); 98.91% in data set [8] (FaSSIF, 2 h); 98.86% in data set [8] (FaSSIF, 24 h); 99.50% in data set [8] (FeSSIF, 0.5 h); 99.34% in [8] (FeSSIF, 2 h). Further, the “HPLC main peak purity” value in data set [8] (FeSSIF, 24 h) turned out to be 98.04%; in data set [8] (FeSSIF, starting value of the decline as stated in the text), 99.56%; in [8] (SGF, 0.5 h), 99.13%; in [8] (SGF, 2 h) it was 99.10%; in data set [8] (SGF, 24 h) it was 99.08%; in [8] (Water, 0.5 h), 99.06%. Besides, the “HPLC main peak purity” value in [8] (Water, 2 h) is listed as 98.79%; in [8] (Water, 24 h), 98.77. %; in data set [9] (0 days (initial)) it was 99.33%; in data set [9] (open, 25° C./60% RH, 3 days) it was 99.34%; in [9] (open, 25° C./60% RH, 7 days) it was 98.95%; in [9] (open, 25° C./60% RH, 14 days) it was 99.43%. For the same molecule, the “HPLC main peak purity” value came out at 99.18% in [9] (open, 25° C./90%(±5%) RH, 3 days); 98.96% in data set [9] (open, 25° C./90%(±5%) RH, 7 days); 99.52% in data set [9] (open, 25° C./90%(±5%) RH, 14 days); 99.30% in data set [9] (open, 40° C./75% RH, 3 days); 99.00% in data set [9] (open, 40° C./75% RH, 7 days); 99.48% in [9] (open, 40° C./75% RH, 14 days). The “HPLC main peak purity” value in [9] (open, 60° C., 3 days) worked out at 99.36%; in data set [9] (open, 60° C., 7 days), 98.92%; in [9] (open, 60° C., 14 days), 99.44%. Besides, the “Crystal form (XRPD) after storage” value in data set [9] (open, 60° C., 25° C./60% RH, 40° C./75% RH, 25° C./90(±5)% RH, 14 days) is on record as “remained unchanged”.
